Data as given in paper PMC11413854, “Reversible Control of Native GluN2B-Containing NMDA Receptors with Visible Light” (ACS Chemical Neuroscience, 2024).
Blank lines part the entries; values can stand above or below the molecule they belong to.

Experiment: Thermal stability of the PSS in the dark and fatigability over illumination cycles
Type: physicochemical
Details: for A(371 nm): Sup. Fig. 1G; for A(334 nm): Sup. Fig. 1K; for A(320 nm): Sup. Fig. 1C
Excerpt: , we focused on the three key properties allowing the use of azobenzenes in biological systems: (i) wavelengths for trans-to-cis and cis-to-trans conversions; (ii) compound thermalstability, i.e., half-life of the cis isomer in the dark; and (iii) fatigability, i.e., the number of illumination cycles that the molecule can undergo without degradation. To this aim, […] recording solution (Ringer pH 7.3; see Methods) either in the dark (absence of illumination) or after illumination by light wavelengths ranging from 350 to 580 nm (Figures 2B and S1M). In the dark (black curve in Figure 2B), the spectrum was characteristic of a trans isomer.[32] Application of UV light at a wavelength close to the main absorption peak of the trans form (365 or 350 nm) gave a completely different spectrum (violet curves in Figure 2B), characteristic of azobenzenes in their cis configuration.[32] […] states (PSS) containing 100% trans in the dark, 82% cis and 18% residual trans after illumination at 365 nm (365 nm PSS, violet curve in Figure 2C), and 91% cis and 9% residual trans after illumination at 350 nm (350 nm PSS, lavender curve in Figure 2C). […] from 435 to 550 nm gave equivalent cis-to-trans conversions with 435 and 550 nm yielding slightly stronger conversions (∼70% trans after illumination at 435 and 550 nm calculated from UV–visible spectra at λtrans = 329 nm, Figures 2B and S1N; 550 nm PSS of 69% trans and 31% cis measured by HPLC, Figure 2C, green trace). 550 nm was chosen as the optimal wavelength since green light is less harmful for cells than lights of shorter wavelengths. We then tested the thermal stability of the cis form in the dark (in the absence of illumination). […]
Thermal stability of the cis state (365 nm PSS) was measured by irradiating the solution with 365 nm light during 10 min, then letting it relax in the dark, at room temperature (20–22 °C), inside the spectrophotometer. Spectra were acquired at regular intervals, up to 1 day, after irradiation.

[1] = Ringer pH 7.3, room temperature

thermal stability of the 550 nm PSS in the dark: time without change of spectrum [1]: ≥ 24 h
cycles of UV/green illumination without degradation (absorbance at 329 nm): ≥ 10 cycles
Compound: c1ccc(/N=N/c2ccc(CCNc3ccncc3)cc2)cc1 [OptoNAM-3, (E)-N-(4-(Phenyldiazenyl)phenethyl)pyridin-4-amine]

thermal stability of the 365 nm PSS (mostly cis) in the dark: time without change of spectra [1]: ≥ 60 min
A(371 nm) (365 nm (t=0)): 0.257
A(371 nm) (365 nm (t=1 min)): 0.255
A(371 nm) (365 nm (t=5min)): 0.256
A(371 nm) (365 nm (t=10 min)): 0.255
A(371 nm) (365 nm (t=20 min)): 0.257
A(371 nm) (365 nm (t=40min)): 0.258
A(371 nm) (365 nm (t=60min)): 0.260
Compound: Cc1cc(N)nc(/N=N/c2ccccc2)c1 [OptoNAM-2, (E)-4-methyl-6-(phenyldiazenyl)pyridin-2-amine]

thermal stability of the 365 nm PSS (mostly cis) in the dark: time without change of spectra [1]: only little change
A(334 nm) (365 nm (t=0)): 0.207
A(334 nm) (365 nm (t=5 min)): 0.200
A(334 nm) (365 nm (t=15 min)): 0.206
A(334 nm) (365 nm (t=30min)): 0.211
A(334 nm) (365 nm (t=40 min)): 0.208
A(334 nm) (365 nm (t=60min)): 0.242
Compound: CS(=O)(=O)Nc1ccc2nc(Cc3ccc(/N=N/c4ccccc4)cc3)[nH]c2c1 [OptoNAM-4, (E)-N-(2-(4-(phenyldiazenyl)benzyl)-1H-benzo[d]imidazol-6-yl)methanesulfonamide]

thermal stability of the 365 nm PSS (mostly cis) in the dark: time without change of spectra [1]: ≥ 60 min
A(320 nm) (365 nm (t=0)): 0.092
A(320 nm) (365 nm (t=2 min)): 0.093
A(320 nm) (365 nm (t=5min)): 0.093
A(320 nm) (365 nm (t=10 min)): 0.093
A(320 nm) (365 nm (t=20min)): 0.093
A(320 nm) (365 nm (t=40min)): 0.094
A(320 nm) (365 nm (t=60min)): 0.094
A(320 nm) (dark): 0.207
Compound: Nc1ccnc(/N=N/c2ccccc2)c1 [OptoNAM-1, (E)-2-(phenyldiazenyl)pyridin-4-amine]
